From the supplement of paper PMC10307832

Assays:
Assay in all cases: relative viability (nuclei count vs DMSO), 5 days (fraction); higher = more cells survive
BAM7 = compound: CCOC1=CC=CC=C1N=NC2=C(NN(C2=O)C3=NC(=CS3)C4=CC=CC=C4)C [BAM7]
In short: (§1)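 Lung cancer cell lines in 1536-well plates were kept overnight at 37 °C, then pinned with five library-drug doses (not always all listed) spaced by √10 on vehicle-anchored plates. After 5 days without medium change, cells were fixed, permeabilised and Hoechst-stained in one step, imaged at 4×, and nuclei were counted with MetaXpress. Viability is treated-well nuclei divided by vehicle-well nuclei, taken as the median over plates. Plates passed only with control CV below 25% and at least one doubling.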

[1] = compound: CCn1c(-c2nonc2N)nc2c(C#CC(C)(C)O)ncc(OC[C@H]3CCCNC3)c21
In short: as §1

BAM7 + Navitoclax = compound: CCOC1=CC=CC=C1N=NC2=C(NN(C2=O)C3=NC(=CS3)C4=CC=CC=C4)C [BAM7] + CC1(C)CCC(c2ccc(Cl)cc2)=C(CN2CCN(c3ccc(C(=O)NS(=O)(=O)c4ccc(N[C@H](CCN5CCOCC5)CSc5ccccc5)c(S(=O)(=O)C(F)(F)F)c4)cc3)CC2)C1 [Navitoclax] (partner 0.5 µM)
In short: (§2)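 Relative viability equals treated-well nuclei counts divided by vehicle-well nuclei counts. Counts came from 4× images of lung cancer cell lines grown in 1536-well plates for 5 days after pin-tool dosing on the day after seeding. Dosing used one drug alone or a fixed anchor-drug dose plus five library-drug doses (not always all listed) in √10 steps, and values are medians of duplicate plates.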

[2] = compound: CCn1c(-c2nonc2N)nc2c(C#CC(C)(C)O)ncc(OC[C@H]3CCCNC3)c21 + N=C(N)NC(=N)NCCc1ccccc1 [Phenformin] (partner 250 µM)
In short: as §2

Cell Line | relative viability (BAM7; 0.5 µM) | relative viability (BAM7; 5 µM) | relative viability (BAM7; 15.81 µM) | relative viability (BAM7; 50 µM) | relative viability ([1]; 0.01 µM) | relative viability ([1]; 0.03162 µM) | relative viability ([1]; 0.1 µM) | relative viability ([1]; 0.3162 µM) | relative viability ([1]; 1 µM) | relative viability (BAM7 + Navitoclax; first compound 0.5 µM) | relative viability (BAM7 + Navitoclax; first compound 5 µM) | relative viability (BAM7 + Navitoclax; first compound 15.81 µM) | relative viability (BAM7 + Navitoclax; first compound 50 µM) | relative viability ([2]; first compound 0.01 µM) | relative viability ([2]; first compound 0.03162 µM) | relative viability ([2]; first compound 0.1 µM) | relative viability ([2]; first compound 0.3162 µM) | relative viability ([2]; first compound 1 µM)
LU99A | 1.09 | 1.02 | 0.979 | 1.07 | 1.07 | 1.13 | 0.889 | 0.854 | 0.922 | 0.787 | 0.849 | 0.72 | 0.821 | 0.847 | 0.839 | 0.774 | 0.748 | 0.837
NCI-H2170 | 0.972 | 0.993 | 0.904 | 0.958 | 0.962 | 1.01 | 0.996 | 0.91 | 0.958 | 0.559 | 0.581 | 0.479 | 0.598 | 0.44 | 0.429 | 0.416 | 0.429 | 0.382
NCI-H2347 | 1.13 | 1.11 | 1.06 | 1.03 | 1 | 1.03 | 0.956 | 1 | 0.93 | 0.765 | 0.918 | 0.806 | 0.861 | 0.442 | 0.307 |  | 0.381 | 0.396
NCI-H1993 | 0.776 | 0.764 | 0.744 | 0.737 | 0.968 | 0.976 | 0.985 | 0.92 | 0.852 | 0.819 | 0.899 | 0.739 | 0.813 | 0.485 | 0.47 | 0.5 | 0.478 | 0.495
NCI-H322M | 0.922 | 0.96 | 1 | 0.991 | 0.887 | 0.763 | 0.839 | 0.827 | 0.828 | 1.3 | 1.22 | 1.18 | 1.06 | 0.717 | 0.727 | 0.677 | 0.7 | 0.744
NCI-H838 | 1.03 | 1.04 | 0.946 | 1.06 | 1.01 | 1 | 0.993 | 0.846 | 0.963 | 1.2 | 1.19 | 1.14 | 1.12 | 0.564 | 0.557 | 0.685 | 0.521 | 0.583
HARA | 0.942 | 1.01 | 0.836 | 0.986 | 0.85 | 0.97 | 0.722 | 0.876 | 0.778 | 1.19 | 1.19 | 1.08 | 1.16 | 0.361 | 0.445 | 0.426 | 0.451 | 0.495
NCI-H2087 | 1.18 | 1.14 | 1.11 | 1.13 | 0.931 | 1.05 | 1.04 | 1.06 | 0.915 | 0.92 | 1.13 | 0.942 | 1.02 | 0.454 | 0.572 | 0.478 | 0.43 | 0.465
NCI-H1437 | 0.991 | 1.02 | 0.928 | 1.01 | 0.957 | 0.974 | 1.05 | 0.935 | 1.1 | 1.18 | 1.07 | 0.964 | 1.03 | 0.331 | 0.34 | 0.293 | 0.239 | 0.306
NCI-H1792 | 1.02 | 1.06 | 1.07 | 0.873 | 0.887 | 0.636 | 0.939 | 0.908 | 0.932 | 0.621 | 0.691 | 0.783 | 0.61 | 0.203 | 0.291 | 0.258 | 0.262 | 0.299
ChaGo-K-1 | 0.966 | 1.02 | 1.01 | 0.92 | 0.965 | 0.988 | 0.972 | 0.936 | 1 | 0.882 | 1.18 | 1.11 | 1.08 | 0.462 | 0.508 | 0.502 | 0.438 | 0.469
COR-L23 | 0.982 | 1.07 | 0.966 | 1.01 | 0.991 | 1.04 | 0.986 | 0.973 | 1.04 | 1.03 | 1.15 | 0.986 | 0.955 | 0.444 | 0.399 | 0.422 | 0.373 | 0.389
COR-L 105 | 0.833 | 0.909 | 0.95 | 1.14 | 0.919 | 0.961 | 1.01 | 0.843 | 1.04 | 0.825 | 0.664 | 0.784 | 0.826 | 0.407 | 0.516 | 0.468 | 0.417 | 0.463
LK-2 | 1.03 | 1.13 | 1.04 | 1.1 | 0.889 | 1.06 | 0.815 | 0.913 | 0.872 | 0.896 | 0.893 | 0.886 | 0.85 | 0.515 | 0.392 |  |  | 0.455
201T | 0.918 | 0.865 | 0.793 | 0.861 | 0.95 | 0.987 | 0.959 | 0.952 | 0.986 | 1.18 | 1.27 | 1.12 | 1.03 | 0.455 | 0.438 | 0.437 | 0.435 | 0.431
HCC-44 | 0.923 | 0.997 | 1.02 | 1.01 | 0.951 | 0.852 | 0.979 | 0.974 | 0.993 | 1.02 | 1.02 | 0.959 | 1.01 | 0.19 | 0.183 | 0.194 | 0.184 | 0.189
NCI-H596 | 0.965 | 1.08 | 0.957 | 1.07 | 0.947 | 0.962 | 0.752 | 0.936 | 1.06 | 0.82 | 0.937 | 0.92 | 1.06 | 0.74 | 0.7 | 0.727 | 0.744 | 0.761
H3255 | 0.99 | 1.02 | 0.963 | 0.995 | 0.924 | 0.949 | 0.998 | 0.856 | 0.904 | 0.473 | 0.51 | 0.525 | 0.577 | 0.403 | 0.406 | 0.342 | 0.338 | 0.329
